We go through two compounds from ChEMBL document CHEMBL1148851, “Chemoenzymatic synthesis and in vitro studies on the hydrolysis of antimicrobial monoglycosyl diglycerides by pancreatic lipase” (2007).

A word on the MIC: it is the smallest concentration in the dilution series that meets the test's criterion for growth inhibition.

Each structure is given as a SMILES string. Values after ≈ are worked out from the molar mass of the structure shown.

The subject of one experiment is Staphylococcus aureus. In words: Antibacterial activity against Staphylococcus aureus ATCC 25923. It counts as functional.
Conditions: not given
The compound `CCCCCCCC/C=C\CCCCCCCC(=O)OCC(CO[C@@H]1O[C@H](CO)[C@@H](O)[C@H](O)[C@H]1O)OC(=O)CCCCCCC/C=C\CCCCCCCC` (stereo partly drawn) returned an MIC greater than 128 µg/mL.
For `CC/C=C\C/C=C\C/C=C\CCCCCCCC(=O)OC[C@H](CO[C@@H]1O[C@H](CO)C(O)[C@H](O)[C@H]1O)OC(=O)CCCCCCC/C=C\C/C=C\C/C=C\CC` (single isomer, unassigned), 128 µg/mL (≈ 165 µM) was the least that counted as inhibitory (MIC).

The next experiment deals with Staphylococcus aureus. In words: Antibacterial activity against Staphylococcus aureus ATCC 105487. It counts as functional.
Conditions: not given
`CCCCCCCC/C=C\CCCCCCCC(=O)OCC(CO[C@@H]1O[C@H](CO)[C@@H](O)[C@H](O)[C@H]1O)OC(=O)CCCCCCC/C=C\CCCCCCCC` (stereo partly drawn) returned an MIC greater than 128 µg/mL.
As for `CC/C=C\C/C=C\C/C=C\CCCCCCCC(=O)OC[C@H](CO[C@@H]1O[C@H](CO)C(O)[C@H](O)[C@H]1O)OC(=O)CCCCCCC/C=C\C/C=C\C/C=C\CC` (single isomer, unassigned), the MIC was greater than 128 µg/mL.

In the next experiment the test system is Enterococcus faecalis. Briefly: Antibacterial activity against Enterococcus faecalis ATCC 29212. It counts as functional.
Conditions: not given
Regarding `CCCCCCCC/C=C\CCCCCCCC(=O)OCC(CO[C@@H]1O[C@H](CO)[C@@H](O)[C@H](O)[C@H]1O)OC(=O)CCCCCCC/C=C\CCCCCCCC` (stereo partly drawn), the MIC was greater than 128 µg/mL.
Consider `CC/C=C\C/C=C\C/C=C\CCCCCCCC(=O)OC[C@H](CO[C@@H]1O[C@H](CO)C(O)[C@H](O)[C@H]1O)OC(=O)CCCCCCC/C=C\C/C=C\C/C=C\CC` (single isomer, unassigned), for which the MIC is greater than 128 µg/mL.

The subject of another experiment is Bacillus subtilis. Briefly: Antibacterial activity against Bacillus subtilis ATCC 6633. The settings on record: Bacillus subtilis, ATCC 6633; read-out: MIC. Format: functional.
As to `CCCCCCCC/C=C\CCCCCCCC(=O)OCC(CO[C@@H]1O[C@H](CO)[C@@H](O)[C@H](O)[C@H]1O)OC(=O)CCCCCCC/C=C\CCCCCCCC` (stereo partly drawn), the MIC is greater than 128 µg/mL.
Regarding `CC/C=C\C/C=C\C/C=C\CCCCCCCC(=O)OC[C@H](CO[C@@H]1O[C@H](CO)C(O)[C@H](O)[C@H]1O)OC(=O)CCCCCCC/C=C\C/C=C\C/C=C\CC` (single isomer, unassigned), the MIC is greater than 128 µg/mL.

The test system of the next experiment is Escherichia coli. Briefly: Antibacterial activity against Escherichia coli ATCC 25922. Format: functional.
Conditions: not given
`CCCCCCCC/C=C\CCCCCCCC(=O)OCC(CO[C@@H]1O[C@H](CO)[C@@H](O)[C@H](O)[C@H]1O)OC(=O)CCCCCCC/C=C\CCCCCCCC` (stereo partly drawn) displayed an MIC greater than 128 µg/mL.
`CC/C=C\C/C=C\C/C=C\CCCCCCCC(=O)OC[C@H](CO[C@@H]1O[C@H](CO)C(O)[C@H](O)[C@H]1O)OC(=O)CCCCCCC/C=C\C/C=C\C/C=C\CC` (single isomer, unassigned) came in with an MIC greater than 128 µg/mL.

Another experiment deals with Pseudomonas aeruginosa. Briefly: Antibacterial activity against Pseudomonas aeruginosa ATCC 27753. Format: functional.
Conditions: not given
The compound `CCCCCCCC/C=C\CCCCCCCC(=O)OCC(CO[C@@H]1O[C@H](CO)[C@@H](O)[C@H](O)[C@H]1O)OC(=O)CCCCCCC/C=C\CCCCCCCC` (stereo partly drawn) registered an MIC greater than 128 µg/mL.
In the case of `CC/C=C\C/C=C\C/C=C\CCCCCCCC(=O)OC[C@H](CO[C@@H]1O[C@H](CO)C(O)[C@H](O)[C@H]1O)OC(=O)CCCCCCC/C=C\C/C=C\C/C=C\CC` (single isomer, unassigned), the MIC was greater than 128 µg/mL.

For the next experiment, the system named is Staphylococcus aureus. Briefly: Antibacterial activity against Staphylococcus aureus SA85 isolate. Format: functional.
Conditions: not given
Turning to `CCCCCCCC/C=C\CCCCCCCC(=O)OCC(CO[C@@H]1O[C@H](CO)[C@@H](O)[C@H](O)[C@H]1O)OC(=O)CCCCCCC/C=C\CCCCCCCC` (stereo partly drawn), the MIC was greater than 128 µg/mL.
`CC/C=C\C/C=C\C/C=C\CCCCCCCC(=O)OC[C@H](CO[C@@H]1O[C@H](CO)C(O)[C@H](O)[C@H]1O)OC(=O)CCCCCCC/C=C\C/C=C\C/C=C\CC` (single isomer, unassigned) yielded an MIC greater than 128 µg/mL.

The test system of the next experiment is Staphylococcus aureus. Briefly: Antibacterial activity against Staphylococcus aureus SA52 isolate.
Conditions: not given
It counts as functional.
Compound `CCCCCCCC/C=C\CCCCCCCC(=O)OCC(CO[C@@H]1O[C@H](CO)[C@@H](O)[C@H](O)[C@H]1O)OC(=O)CCCCCCC/C=C\CCCCCCCC` (stereo partly drawn) gave an MIC greater than 128 µg/mL.
With `CC/C=C\C/C=C\C/C=C\CCCCCCCC(=O)OC[C@H](CO[C@@H]1O[C@H](CO)C(O)[C@H](O)[C@H]1O)OC(=O)CCCCCCC/C=C\C/C=C\C/C=C\CC` (single isomer, unassigned), the MIC is greater than 128 µg/mL.

In the next experiment the test system is Staphylococcus aureus. In words: Antibacterial activity against Staphylococcus aureus SA87 isolate. It counts as functional. The settings on record: Staphylococcus aureus; read-out: MIC.
Regarding `CCCCCCCC/C=C\CCCCCCCC(=O)OCC(CO[C@@H]1O[C@H](CO)[C@@H](O)[C@H](O)[C@H]1O)OC(=O)CCCCCCC/C=C\CCCCCCCC` (stereo partly drawn), the MIC is greater than 128 µg/mL.
Turning to `CC/C=C\C/C=C\C/C=C\CCCCCCCC(=O)OC[C@H](CO[C@@H]1O[C@H](CO)C(O)[C@H](O)[C@H]1O)OC(=O)CCCCCCC/C=C\C/C=C\C/C=C\CC` (single isomer, unassigned), the MIC was greater than 128 µg/mL.

In the next experiment the test system is Mycobacterium tuberculosis. In words: Antibacterial activity against Mycobacterium tuberculosis H37Rv by dilution method. Format: functional. The settings on record: Mycobacterium tuberculosis, H37Rv; read-out: MIC.
Regarding `CCCCCCCC/C=C\CCCCCCCC(=O)OCC(CO[C@@H]1O[C@H](CO)[C@@H](O)[C@H](O)[C@H]1O)OC(=O)CCCCCCC/C=C\CCCCCCCC` (stereo partly drawn), the MIC is greater than 128 µg/mL.
For `CC/C=C\C/C=C\C/C=C\CCCCCCCC(=O)OC[C@H](CO[C@@H]1O[C@H](CO)C(O)[C@H](O)[C@H]1O)OC(=O)CCCCCCC/C=C\C/C=C\C/C=C\CC` (single isomer, unassigned), the minimal inhibitory concentration (MIC) was greater than 128 µg/mL.

The test system of the next experiment is Mycobacterium tuberculosis. Briefly: Antibacterial activity against Mycobacterium tuberculosis H160 by dilution method. It counts as functional. To be noted: Mycobacterium tuberculosis, H160; read-out: MIC.
With `CCCCCCCC/C=C\CCCCCCCC(=O)OCC(CO[C@@H]1O[C@H](CO)[C@@H](O)[C@H](O)[C@H]1O)OC(=O)CCCCCCC/C=C\CCCCCCCC` (stereo partly drawn), the MIC was greater than 128 µg/mL.
On to `CC/C=C\C/C=C\C/C=C\CCCCCCCC(=O)OC[C@H](CO[C@@H]1O[C@H](CO)C(O)[C@H](O)[C@H]1O)OC(=O)CCCCCCC/C=C\C/C=C\C/C=C\CC` (single isomer, unassigned), for which the MIC was greater than 128 µg/mL.

A further experiment has as its system Mycobacterium tuberculosis. Briefly: Antibacterial activity against Mycobacterium tuberculosis H190 by dilution method. Format: functional.
Conditions: not given
Compound `CCCCCCCC/C=C\CCCCCCCC(=O)OCC(CO[C@@H]1O[C@H](CO)[C@@H](O)[C@H](O)[C@H]1O)OC(=O)CCCCCCC/C=C\CCCCCCCC` (stereo partly drawn) returned an MIC greater than 128 µg/mL.
In turn, `CC/C=C\C/C=C\C/C=C\CCCCCCCC(=O)OC[C@H](CO[C@@H]1O[C@H](CO)C(O)[C@H](O)[C@H]1O)OC(=O)CCCCCCC/C=C\C/C=C\C/C=C\CC` (single isomer, unassigned) returned an MIC greater than 128 µg/mL.

A further experiment deals with Candida albicans. Briefly: Antifungal activity against Candida albicans by dilution method. It counts as functional.
Conditions: not given
Compound `CCCCCCCC/C=C\CCCCCCCC(=O)OCC(CO[C@@H]1O[C@H](CO)[C@@H](O)[C@H](O)[C@H]1O)OC(=O)CCCCCCC/C=C\CCCCCCCC` (stereo partly drawn) had a minimal inhibitory concentration (MIC) greater than 128 µg/mL.
In turn, `CC/C=C\C/C=C\C/C=C\CCCCCCCC(=O)OC[C@H](CO[C@@H]1O[C@H](CO)C(O)[C@H](O)[C@H]1O)OC(=O)CCCCCCC/C=C\C/C=C\C/C=C\CC` (single isomer, unassigned) registered a minimum inhibitory concentration (MIC) greater than 128 µg/mL.

A further experiment has as its system Kluyveromyces marxianus. Briefly: Antifungal activity against Candida pseudotropicalis by dilution method. It counts as functional.
Conditions: not given
`CCCCCCCC/C=C\CCCCCCCC(=O)OCC(CO[C@@H]1O[C@H](CO)[C@@H](O)[C@H](O)[C@H]1O)OC(=O)CCCCCCC/C=C\CCCCCCCC` (stereo partly drawn) returned an MIC greater than 128 µg/mL.
On the same count and under the same terms, then `CC/C=C\C/C=C\C/C=C\CCCCCCCC(=O)OC[C@H](CO[C@@H]1O[C@H](CO)C(O)[C@H](O)[C@H]1O)OC(=O)CCCCCCC/C=C\C/C=C\C/C=C\CC` (single isomer, unassigned), with greater than 128 µg/mL.
